Source: patent publication US8440674B2, “Substituted pyrimidine compounds as RAF inhibitors and methods of use” (Amgen Inc., priority 2005, dated 2013)
Where two headings read alike, the source gives them in different places.

What was measured:
recombinant HuBraf V600E = recombinant HuBraf V600E (Homo sapiens, UniProt P15056, V600E); test: B-raf Homogenous Time Resolved Fluorescent (HTRF) kinase assay; format: biochemical; conditions: substrate MEK1, 10 uM ATP; threshold lists; read-out: IC50 for the inhibition of B-raf as measured by the HTRF assay
Experimental: A Homogeneous Time Resolved Fluorescence (HTRF) kinase assay was established to assay the ability of compounds to inhibit human mutant Braf kinase activity on the substrate MEK1. […] The final concentration of the kinase reaction buffer is 50 mM Tris-HCL pH 7.5, 10 mM MgCl2, 0.5% glucose, 0.5 mM DTT, 0.01% BSA.
The detection reaction proceeds for one hour and is read on a RubyStar (BMG Labtech) counter. IC50s for the test compounds are generated using Excel-XLfit software.

[1] = system: A375 cells, a human melanoma cell line having the V600E mutant Braf; test: B-Raf cell-based assay (ratio of phospho-ERK1/2 to total ERK1/2); conditions: A-375, 1 h, P-ERK/total ERK, 60 minute incubation, read-out: IC50 for the inhibition of B-raf as measured by the cell-based assay
Experimental: A cell-based assay was optimized to assay the ability of compounds to inhibit Braf activity in a whole cell context. […] The cell-based assay quantifies the ratio of phospho-ERK1/2 to total ERK1/2 and can thereby assay the cellular inhibition of Braf kinase activity.
A375 cells are plated into 96 well plates and grown to confluence. The cells are then changed into starve media (DMEM/0.1% BSA) for 60 minutes. Compounds in DMSO dose curves are then diluted in starve media and added to cells. […] After a 60 minute incubation the cells are fixed for 20 minutes at room temperature in 4% formaldehyde with 0.1%Triton X-100, protease and phosphatase inhibitors in PBS. The cells are washed four times in PBS then blocked for 60 minutes using a one to one mix of Odyssey blocking buffer (Li-Cor Biosciences, Inc) and PBS. Primary antibodies (rabbit anti-phospho p42/p44 MAPK (P-ERK1/2) from Cell Signaling Technology and mouse anti-ERK2 from Santa Cruz Biotechnology) are diluted in blocking buffer, added to the cells and incubated overnight at 4° C. The cells are then washed four times in PBS/0.1% Tween-20. Secondary antibodies (anti-mouse IRDye 800CW from Rockland, Inc and anti-rabbit AlexaFlour680 from Molecular Probes) are diluted in blocking buffer/0.5% Tween and incubated on cells for 60 minutes. After 4 washes in PBS/0.1% Tween-20 the microplate is scanned on an Odyssey Infrared Imager (Li-Cor Bioscience) which can read the signal given by the two secondary antibodies on their respective channels. The ratio of P-ERK/total ERK is determined and IC50s generated using Excel-XLfit software.

Chain of recombinant HuBraf V600E (P15056 whole entry V600E): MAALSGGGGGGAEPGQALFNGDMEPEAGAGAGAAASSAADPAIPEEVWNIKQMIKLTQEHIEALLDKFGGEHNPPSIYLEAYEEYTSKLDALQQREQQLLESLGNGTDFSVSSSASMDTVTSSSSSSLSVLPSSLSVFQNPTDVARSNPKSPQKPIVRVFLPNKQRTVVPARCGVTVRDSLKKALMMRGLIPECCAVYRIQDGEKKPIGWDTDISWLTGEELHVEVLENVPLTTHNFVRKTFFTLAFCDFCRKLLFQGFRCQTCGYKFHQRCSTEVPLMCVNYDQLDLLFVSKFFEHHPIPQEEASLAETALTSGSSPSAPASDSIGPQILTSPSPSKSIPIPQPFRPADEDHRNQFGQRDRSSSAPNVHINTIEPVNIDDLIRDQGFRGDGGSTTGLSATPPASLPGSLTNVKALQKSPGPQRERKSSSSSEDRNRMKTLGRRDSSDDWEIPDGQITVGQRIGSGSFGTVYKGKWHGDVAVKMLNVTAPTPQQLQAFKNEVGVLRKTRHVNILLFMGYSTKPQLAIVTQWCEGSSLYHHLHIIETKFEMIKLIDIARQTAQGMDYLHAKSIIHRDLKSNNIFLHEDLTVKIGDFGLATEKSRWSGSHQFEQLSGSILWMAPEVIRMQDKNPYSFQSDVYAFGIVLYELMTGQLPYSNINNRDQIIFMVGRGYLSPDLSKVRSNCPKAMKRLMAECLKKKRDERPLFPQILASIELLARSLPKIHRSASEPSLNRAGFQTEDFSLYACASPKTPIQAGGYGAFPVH

## CNc1cc(-c2cccnc2Nc2c(C)ccc3c(Nc4cccc(C(F)(F)F)c4)ncnc23)ncn1 [Example 337, 7-methyl-N8-(3-(6-(methylamino)pyrimidin-4-yl)pyridin-2-yl)-N4-(3-(trifluoromethyl)phenyl)quinazoline-4,8-diamine]
Recombinant HuBraf V600E
  IC50: ≤ 250 nM
[1]; threshold lists
  IC50: ≤ 5000 nM

## CNc1ncc2cc(-c3c(C)ccc4c(Nc5cccc(C#N)c5)nn(C)c34)ccc2n1 [Example 196]
[1]; threshold list
  IC50: ≤ 500 nM

## CNc1cc(-c2cccnc2Nc2c(C)ccc3c(Nc4ccc(Cl)c(C)c4)nccc23)ncn1 [Example 352]
Recombinant HuBraf V600E
  IC50: ≤ 250 nM
[1]; threshold lists
  IC50: ≤ 5000 nM

## CNc1ncc2cc(-c3c(C)ccc4c(Nc5cccc(OC(F)(F)F)c5)nn(C)c34)ccc2n1 [Example 65, 6-(1,6-dimethyl-3-((3-((trifluoromethyl)oxy)phenyl)amino)-1H-indazol-7-yl)-N-methyl-2-quinazolinamine]
Recombinant HuBraf V600E
  IC50: ≤ 250 nM
[1]; threshold list
  IC50: ≤ 500 nM

## CNc1cc(-c2cccnc2Nc2c(C)ccc3c(Nc4ccc(OC)c(C(F)(F)F)c4)nccc23)ncn1 [Example 70, N^1-(4-methoxy-3-(trifluoromethyl)phenyl)-6-methyl-N^5-(3-(6-(methylamino)pyrimidin-4-yl)pyridin-2-yl)isoquinoline-1,5-diamine]
Recombinant HuBraf V600E
  IC50: ≤ 500 nM
[1]; threshold list
  IC50: ≤ 500 nM

## CNc1nccc(-c2cccnc2Oc2c(C)ccc3c(Nc4cccc(OC(F)(F)F)c4)nccc23)n1 [Example 413, 6-methyl-5-(3-(2-(methylamino)pyrimidin-4-yl)pyridin-2-yloxy)-N-(3-(trifluoromethoxy)phenyl)isoquinolin-1-amine]
[1]; threshold lists
  IC50: ≤ 5000 nM

## CNc1ncc2cc(-c3c(C)ccc4c(Nc5ccc(OC)c(C(F)(F)F)c5)nn(C)c34)ccc2n1 [Example 64, 6-(1,6-dimethyl-3-((4-(methyloxy)-3-(trifluoromethyl)phenyl)amino)-1H-indazol-7-yl)-N-methyl-2-quinazolinamine]
Recombinant HuBraf V600E
  IC50: ≤ 250 nM
[1]; threshold list
  IC50: ≤ 500 nM

## CNc1ncc2cc(-c3c(C)ccc4c(Nc5cccc(C#N)c5)nccc34)ccc2n1 [Example 30, 3-((6-methyl-5-(2-(methylamino)-6-quinazolinyl)-1-isoquinolinyl)amino)benzonitrile]
Recombinant HuBraf V600E
  IC50: ≤ 250 nM
[1]; threshold list
  IC50: ≤ 500 nM

## CNc1ncc2cc(-c3c(C)cnc4c(Nc5ccc(OC)c(C(F)(F)F)c5)nccc34)ccc2n1 [Example 410]
Recombinant HuBraf V600E
  IC50: ≤ 1000 nM
[1]; threshold list
  IC50: ≤ 500 nM

## CNc1ncc2cc(-c3c(C)ccc4c(Nc5ccc6[nH]ncc6c5)nccc34)ccc2n1 [Example 37, 6-(1-(1H-indazol-5-ylamino)-6-methyl-5-isoquinolinyl)-N-methyl-2-quinazolinamine]
Recombinant HuBraf V600E
  IC50: ≤ 250 nM
[1]; threshold list
  IC50: ≤ 500 nM

## CNc1ncc2cc(-c3c(C)ccc4c(Nc5cccc(OC(F)(F)F)c5)nccc34)ccc2n1 [Example 32, N-methyl-6-(6-methyl-1-((3-((trifluoromethyl)oxy)phenyl)amino)-5-isoquinolinyl)-2-quinazolinamine]
Recombinant HuBraf V600E
  IC50: ≤ 250 nM
[1]; threshold list
  IC50: ≤ 500 nM

## CNc1ncc2cc(-c3c(C)ccc4c(Nc5ccc(OC)c(C(F)(F)F)c5)nccc34)ccc2n1 [Example 35, N-methyl-6-(6-methyl-1-((4-(methyloxy)-3-(trifluoromethyl)phenyl)amino)-5-isoquinolinyl)-2-quinazolinamine]
Recombinant HuBraf V600E
  IC50: ≤ 250 nM
[1]; threshold list
  IC50: ≤ 500 nM

## Cc1ccc2c(Nc3cccc(OC(F)(F)F)c3)nccc2c1Nc1ncccc1-c1ccncn1 [Example 18, 6-methyl-N^5-(3-(4-pyrimidinyl)-2-pyridinyl)-N^1-(3-((trifluoromethyl)oxy)phenyl)-1,5-isoquinolinediamine]
Recombinant HuBraf V600E
  IC50: ≤ 250 nM
[1]; threshold list
  IC50: ≤ 500 nM

## CNc1cc(-c2cccnc2Nc2c(C)ccc3c(Nc4cc(C(F)(F)F)ccc4C)nccc23)ncn1 [Example 349]
[1]; threshold lists
  IC50: ≤ 5000 nM

## CNc1ncc2cc(-c3c(C)ccc4c(Nc5cccc(OC(C)C)c5)nccc34)ccc2n1 [Example 25, N-methyl-6-(6-methyl-1-((3-((1-methylethyl)oxy)phenyl)amino)-5-isoquinolinyl)-2-quinazolinamine]
Recombinant HuBraf V600E
  IC50: ≤ 250 nM
[1]; threshold list
  IC50: ≤ 500 nM

## Cc1ccc2c(Nc3cc(C(C)(C)C)nn3C)nccc2c1Nc1ncccc1-c1ccncn1 [Example 15, N^1-(3-(1,1-dimethylethyl)-1-methyl-1H-pyrazol-5-yl)-6-methyl-N^5-(3-(4-pyrimidinyl)-2-pyridinyl)-1,5-isoquinolinediamine]
Recombinant HuBraf V600E
  IC50: ≤ 250 nM
[1]; threshold list
  IC50: ≤ 500 nM

## CNc1ncc2cc(-c3c(C)ccc4c(Nc5cccc(C(F)(F)F)c5)nn(C)c34)ccc2n1 [Example 63, 6-(1,6-dimethyl-3-((3-(trifluoromethyl)phenyl)amino)-1H-indazol-7-yl)-N-methyl-2-quinazolinamine]
Recombinant HuBraf V600E
  IC50: ≤ 250 nM
[1]; threshold list
  IC50: ≤ 500 nM

## Cc1ccc2c(Nc3cccc(C(F)(F)F)c3)nccc2c1-c1ccc2nc(N)ncc2c1 [Example 361, 6-(6-methyl-1-(3-(trifluoromethyl)phenylamino)isoquinolin-5-yl)quinazolin-2-amine]
Recombinant HuBraf V600E
  IC50: ≤ 250 nM

## CNc1ncc2cc(-c3c(C)ccc4c(Nc5ccc6sc(C)nc6c5)ncnc34)ccc2n1 [Example 58, N^2,7′-dimethyl-N^4′-(2-methyl-1,3-benzothiazol-5-yl)-6,8′-biquinazoline-2,4′-diamine]
Recombinant HuBraf V600E
  IC50: ≤ 250 nM
[1]; threshold list
  IC50: ≤ 500 nM
[1]; threshold lists
  IC50: ≤ 1000 nM

## CNc1ncc2cc(-c3c(C)ccc4c(Nc5cccc(C(F)(F)F)c5)nsc34)ccc2n1 [Example 398, N-methyl-6-(6-methyl-3-(3-(trifluoromethyl)phenylamino)benzo[d]isothiazol-7-yl)quinazolin-2-amine]
Recombinant HuBraf V600E
  IC50: ≤ 250 nM
[1]; threshold list
  IC50: ≤ 500 nM

## Cc1ccc2c(Nc3cccc(Cl)c3)nccc2c1Nc1ncccc1-c1ccncn1 [Example 14, N^1-(3-chlorophenyl)-6-methyl-N^5-(3-(4-pyrimidinyl)-2-pyridinyl)-1,5-isoquinolinediamine]
Recombinant HuBraf V600E
  IC50: ≤ 250 nM
[1]; threshold list
  IC50: ≤ 500 nM

## Cc1ccc(C(F)(F)F)cc1Nc1nccc2c(Nc3ncccc3-c3ccncn3)c(C)ccc12 [Example 344, 6-methyl-N1-(2-methyl-5-(trifluoromethyl)phenyl)-N5-(3-(pyrimidin-4-yl)pyridin-2-yl)isoquinoline-1,5-diamine]
Recombinant HuBraf V600E
  IC50: ≤ 250 nM

## CNc1cc(-c2cccnc2Nc2c(C)ccc3c(Nc4cc(C(C)(C)C)nn4C)nccc23)ncn1 [Example 69, N^1-(3-tert-butyl-1-methyl-1H-pyrazol-5-yl)-6-methyl-N^5-(3-(6-(methylamino)pyrimidin-4-yl)pyridin-2-yl)isoquinoline-1,5-diamine]
[1]; threshold lists
  IC50: ≤ 5000 nM

## CNc1ncc2cc(-c3c(C)ccc4c(Nc5cccnc5)nn(C)c34)ccc2n1 [Example 163]
[1]; threshold list
  IC50: ≤ 500 nM
[1]; threshold lists
  IC50: ≤ 1000 nM

## CNc1ncc2cc(-c3c(C)ccc4c(Nc5cccc(C(F)(F)F)c5)nccc34)c(=O)n(C)c2n1 [Example 354, 8-methyl-6-(6-methyl-1-(3-(trifluoromethyl)phenylamino)isoquinolin-5-yl)-2-(methylamino)pyrido[2,3-d]pyrimidin-7(8H)-one]
[1]; threshold lists
  IC50: ≤ 5000 nM

## CNc1cc(-c2cccnc2F)ncn1 [Example 345, 6-(2-fluoropyridin-3-yl)-N-methylpyrimidin-4-amine]
[1]; threshold list
  IC50: ≤ 500 nM
[1]; threshold lists
  IC50: ≤ 1000 nM

## CNc1ncc2cc(-c3c(C)ccc4c(Nc5ccc6c(c5)NC(=O)CC6(C)C)nnc(C)c34)ccc2n1 [Example 438]
[1]; threshold list
  IC50: ≤ 500 nM

## CNc1ncc2cc(-c3c(C)ccc4c(Nc5cccc(OC(F)(F)F)c5)nc(C)nc34)ccc2n1 [Example 86, 6-(2,7-dimethyl-4-(3-(trifluoromethoxy)phenylamino)quinazolin-8-yl)-N-methylquinazolin-2-amine]
[1]; threshold lists
  IC50: ≤ 5000 nM

## CNc1ncc2cc(-c3c(C)ccc4c(Nc5ccc(C#N)cc5)nccc34)ccc2n1 [Example 103]
[1]; threshold list
  IC50: ≤ 500 nM
[1]; threshold lists
  IC50: ≤ 1000 nM

## CNc1ncc2cc(-c3c(C)ccc4c(Nc5cccc(C(C)(C)O)c5)nncc34)ccc2n1 [Example 433, 2-(3-(6-methyl-5-(2-(methylamino)quinazolin-6-yl)phthalazin-1-ylamino)phenyl)propan-2-ol]
[1]; threshold lists
  IC50: ≤ 5000 nM

## CNc1ncc2cc(-c3c(C)ccc4c(Nc5cncc(OC(C)C)c5)nccc34)ccc2n1 [Example 378, 6-(1-(5-isopropoxypyridin-3-ylamino)-6-methylisoquinolin-5-yl)-N-methylquinazolin-2-amine]
Recombinant HuBraf V600E
  IC50: ≤ 1000 nM

## CNc1ncc2cc(-c3cccc4c(Nc5cccc(C(F)(F)F)c5)nccc34)c(=O)n(C)c2n1 [Example 360]
Recombinant HuBraf V600E
  IC50: ≤ 250 nM
